Results from PMC8742467, “Therapeutical interference with the epigenetic landscape of germ cell tumors: a comparative drug study and new mechanistical insights” (Clinical Epigenetics, 2022).

Experiments:
[1] = system: GCT cell lines; assay: XTT cell viability assay, GCT cell lines (pre-screen / summary); type: cell-based, Human; details: first pre-screen, SE and EC proxies TCam-2 and 2102EP, XTT
Description: The […] (XTT) assays were performed as described previously. In summary, for GCT and fibroblast cell lines 5 × 10^3 cells (3 × 10^3 for UC, PCa and RCC cell lines) per 96-well were seeded and different drug concentrations (see Additional file 2: Fig. S2, Additional file 3: Fig. S3) or corresponding solvents were added to the cells the following day. For drug details see Additional file 12: Table S2 C. Each condition was analyzed in four technical replicates and EC50 values were calculated by GraphPad Prism v8.

[2] = system: 2102EP-R; assay: Flow cytometry apoptosis (Annexin V/PI), 2102EP-R; type: cell-based, Human; details: EC50, 16 h, compared to the parental cell line
[3] = system: fibroblast control cells; assay: Flow cytometry apoptosis (Annexin V/PI), fibroblasts; type: cell-based, Human; details: EC50, 16 h
Description: (§1) For Annexin V/PI staining, cells were washed with Annexin V Binding Buffer before being resuspended in 70 µl Annexin V Binding Buffer and 2.5 μl Annexin V FITC-conjugate (both Miltenyi Biotec, Bergisch Gladbach, Germany) and 15 µg PI (Sigma-Aldrich, Taufkirchen, Germany) and incubated in the dark at room temperature for 15 min. 500 µl of Annexin V Binding Buffer was added before measurement. For the cell cycle analysis, cells were washed with PBS (phosphate buffered saline), fixed by ice cold 70% ethanol and stained with 2 µg/ml PI and 200 µg/ml RNaseA (Quiagen, Hilden, Germany 100 mg/ml) in PBS shortly before every measurement. At least 5 × 10^4 cells were counted and analyzed using the MACSQuant software v 2.13.0.

[4] = system: 2102EP-R; assay: Flow cytometry cell cycle (PI), 2102EP-R; type: cell-based, Human; details: EC50, 16 h
Description: as §1

[5] = system: GCT cells; assay: Flow cytometry cell cycle (PI), GCT cells; type: cell-based, Human; details: EC50, 16 h
Description: as §1

[6] = system: histone modifications in 2102EP cells; assay: Mass spectrometry analysis of histone modifications (Mod Spec); type: cell-based, Human
Description: 2102EP cells were treated with the EC50 concentrations for Quisinostat, JIB-04, Chaetocin, MZ-1, LP99, PRT4165, GSK343 and DMSO as solvent control. The cells were harvested via trypsinization after 16 h. The mass spectrometric analysis of histone modifications was outsourced to the Mod Spec service by Active Motif (Carlsbad, CA, USA). Histone extraction and mass spectrometric analysis was performed as described previously. Raw data were transformed into z-scores as the input. The heatmap was generated in R using ‘pheatmap’ with default settings and provided by Active Motif.

[7] = system: DNA methylation (5mC, 5hmC) in 2102EP cells; assay: DNA slot blot (5mC, 5hmC); type: cell-based, Human; details: 24 h
Description: Purity of DNA was verified using NanoDrop 260/280 ratio and agarose gel electrophoresis. DNA was diluted in H2O to 200 ng, 100 ng and 50 ng in 200 µl per slot. Slot-Blotter device (Carl Roth GmbH + Co KG, Karlsruhe, Germany) was assembled as according to the manual. DNA was blotted onto a positively charged nylon membrane (Carl Roth GmbH + Co KG, Karlsruhe, Germany) using vacuum application. Three identical membranes were prepared. The membranes were air-dried for 15—20 min and UV-crosslinked (20 s (s), 1200 mJ/cm^2). One membrane was stained with methylene blue (0.02% methylene blue (Merck Millipore, Darmstadt, Germany) in 0.3 M sodium acetate (pH 5.2)) to validate DNA loading across the samples. The remaining two membranes were blocked in 5% milk powder in PBST for 1 h at RT. Membranes were incubated with 5mC or 5hmC antibody overnight at 4 °C. After washing, membranes were incubated with secondary antibody for 2 h at RT. Signals were detected using the ChemiDoc Imaging Systems (Bio-Rad Laboratories, Feldkirchen, Germany).

[8] = system: transcriptome of 2102EP cells; assay: RNA sequencing; type: cell-based, Human; details: 16 h
Description: Transcriptome analysis has been performed as previously described at the core facility ‘Genomics & Transcriptomics’ (Prof. Dr. Karl Köhrer, Biomedical Research Center, Heinrich Heine University, Düsseldorf, Germany) and has been publicly shared via GEO (https://www.ncbi.nlm.nih.gov/geo/, GSE189472). RNA samples were quantified and measured as previously described. Statistical analyses were performed using the ‘Differential Expression in two groups’ tool (version 1.02) (Qiagen) and the resulting p values were corrected for multiple testing by false discovery rate (FDR). Accompanying PCA and heatmap were generated using Qlucore Omics Explorer 3.7 (Qlucore AB, Lund, Sweden). Values of solvent controls wereaveraged from the studies GSE189472, GSE190792 and GSE190022 [95].

[9] = system: phosphorylated kinase targets in 2102EP cells; assay: Proteome Profiler Human Phospho-Kinase Array; type: cell-based; details: 16 h
Description: For the detection of phosphorylated kinase targets, the Proteome Profiler Human Phospho-Kinase Array Kit (R&D Systems, Abingdon, UK) was used according to the manufacturer’s instructions. The ChemiDoc Imaging System (Bio-Rad Laboratories, Feldkirchen, Germany) was used for detection. 2102EP cells were harvested after 16 h of treatment with the epi-drugs. Pixel density was analyzed using Fiji ImageJ 1.53c.

[10] = 2102EP cells, Mod Spec raw data

Q: What does the source list for `Cc1ncsc1-c1ccc(CNC(=O)[C@@H]2C[C@@H](O)CN2C(=O)[C@@H](NC(=O)COCCOCCOCCNC(=O)C[C@@H]2N=C(c3ccc(Cl)cc3)c3c(sc(C)c3C)-n3c(C)nnc32)C(C)(C)C)cc1` [MZ-1]?
A: EC50 / effective concentration in words [1]: nanomolar range; apoptosis induction in 2102EP-R [2]: did not induce apoptosis; apoptosis induction in fibroblast control cells [3]: only a weak apoptosis induction; cell cycle arrest in 2102EP-R [4]: induced a cell cycle arrest; cell cycle phase accumulation in GCT cells [5]: accumulated in the G0/G1 phase; H1.4: K25AC, % of peptide pool [6, 10]: 0.008625%; H1.4: K25ME1, % of peptide pool [6, 10]: 2.068%; H1.4: K25ME2, % of peptide pool [6, 10]: 0.007907%; H1.4: K25ME3, % of peptide pool [6, 10]: 0.004447%; H1.4: K25UN, % of peptide pool [6, 10]: 97.9109%; H2A1: K13AC, % of peptide pool [6, 10]: 0.01664%; H2A1: K13UN, % of peptide pool [6, 10]: 99.9834%; H2A1: K15AC, % of peptide pool [6, 10]: 0.002429%; H2A1: K15UB, % of peptide pool [6, 10]: 0%; H2A1: K15UN, % of peptide pool [6, 10]: 99.9976%; H2A3: K13AC, % of peptide pool [6, 10]: 0.02309%; H2A3: K13UN, % of peptide pool [6, 10]: 99.9769%; H2A3: K15AC, % of peptide pool [6, 10]: 0.2972%; H2A3: K15UB, % of peptide pool [6, 10]: 0%; H2A3: K15UN, % of peptide pool [6, 10]: 99.7028%; H2A: K5AC, % of peptide pool [6, 10]: 16.7692%; H2A: K5UN, % of peptide pool [6, 10]: 83.2308%; H2A: K9AC, % of peptide pool [6, 10]: 1.92%; H2A: K9UN, % of peptide pool [6, 10]: 98.08%; H2A: K36AC, % of peptide pool [6, 10]: 0.02873%; H2A: K36UN, % of peptide pool [6, 10]: 99.9713%; H3: K9AC, % of peptide pool [6, 10]: 0.8879%; H3: K9ME1, % of peptide pool [6, 10]: 31.6276%; H3: K9ME2, % of peptide pool [6, 10]: 28.3662%; H3: K9ME3, % of peptide pool [6, 10]: 2.878%; H3: K9UN, % of peptide pool [6, 10]: 36.24%; H3: K14AC, % of peptide pool [6, 10]: 33.1456%; H3: K14UN, % of peptide pool [6, 10]: 66.8544%; H3: K18AC, % of peptide pool [6, 10]: 15.0157%; H3: K18ME1, % of peptide pool [6, 10]: 0.179%; H3: K18UN, % of peptide pool [6, 10]: 84.8052%; H3: K23AC, % of peptide pool [6, 10]: 21.7451%; H3: K23ME1, % of peptide pool [6, 10]: 0.008431%; H3: K23UN, % of peptide pool [6, 10]: 78.2464%; H3: K56AC, % of peptide pool [6, 10]: 0.06901%; H3: K56ME1, % of peptide pool [6, 10]: 0.03638%; H3: K56UN, % of peptide pool [6, 10]: 99.8946%; H3: K64AC, % of peptide pool [6, 10]: 0.06102%; H3: K64UN, % of peptide pool [6, 10]: 99.939%; H3: K79AC, % of peptide pool [6, 10]: 0.05432%; H3: K79ME1, % of peptide pool [6, 10]: 14.344%; H3: K79ME2, % of peptide pool [6, 10]: 7.357%; H3: K79ME3, % of peptide pool [6, 10]: 10.1837%; H3: K79UN, % of peptide pool [6, 10]: 68.0612%; H3: K122AC, % of peptide pool [6, 10]: 0.03608%; H3: K122UN, % of peptide pool [6, 10]: 99.9639%; H3: Q19ME1, % of peptide pool [6, 10]: 0.004515%; H3: Q19UN, % of peptide pool [6, 10]: 99.9955%; H3: Q55ME1, % of peptide pool [6, 10]: 0.1937%; H3: Q55UN, % of peptide pool [6, 10]: 99.8063%; H3: R42ME2, % of peptide pool [6, 10]: 1.387%; H3: R42UN, % of peptide pool [6, 10]: 98.6131%; H3: R49ME2, % of peptide pool [6, 10]: 3.092%; H3: R49UN, % of peptide pool [6, 10]: 96.9084%; H3R2UN: K4AC, % of peptide pool [6, 10]: 0.04633%; H3R2UN: K4ME1, % of peptide pool [6, 10]: 16.637%; H3R2UN: K4ME2, % of peptide pool [6, 10]: 0.2165%; H3R2UN: K4ME3, % of peptide pool [6, 10]: 0.04192%; H3R2UN: K4UN, % of peptide pool [6, 10]: 83.0582%; H3R2UN: Q5ME1, % of peptide pool [6, 10]: 0.08148%; H3R2UN: Q5UN, % of peptide pool [6, 10]: 99.9185%; H3.1: K27AC, % of peptide pool [6, 10]: 2.915%; H3.1: K27ME1, % of peptide pool [6, 10]: 46.4162%; H3.1: K27ME2, % of peptide pool [6, 10]: 19.546%; H3.1: K27ME3, % of peptide pool [6, 10]: 2.363%; H3.1: K27UN, % of peptide pool [6, 10]: 28.7602%; H3.1: K36AC, % of peptide pool [6, 10]: 0.09043%; H3.1: K36ME1, % of peptide pool [6, 10]: 14.1558%; H3.1: K36ME2, % of peptide pool [6, 10]: 48.8646%; H3.1: K36ME3, % of peptide pool [6, 10]: 20.4408%; H3.1: K36UN, % of peptide pool [6, 10]: 16.4484%; H3.3: K27AC, % of peptide pool [6, 10]: 6.233%; H3.3: K27M, % of peptide pool [6, 10]: 0%; H3.3: K27ME1, % of peptide pool [6, 10]: 47.8396%; H3.3: K27ME2, % of peptide pool [6, 10]: 15.5733%; H3.3: K27ME3, % of peptide pool [6, 10]: 3.5424%; H3.3: K27UN, % of peptide pool [6, 10]: 26.8119%; H3.3: K36AC, % of peptide pool [6, 10]: 1.864%; H3.3: K36ME1, % of peptide pool [6, 10]: 12.2128%; H3.3: K36ME2, % of peptide pool [6, 10]: 53.2755%; H3.3: K36ME3, % of peptide pool [6, 10]: 19.9611%; H3.3: K36UN, % of peptide pool [6, 10]: 12.6864%; H4: K5AC, % of peptide pool [6, 10]: 7.836%; H4: K5UN, % of peptide pool [6, 10]: 92.164%; H4: K8AC, % of peptide pool [6, 10]: 12.4074%; H4: K8UN, % of peptide pool [6, 10]: 87.5926%; H4: K12AC, % of peptide pool ([6]; 2102EP cells, Mod Spec raw data, histone H4 K12 acetylated): 7.206 % of peptide pool; H4: K12UN, % of peptide pool ([6]; 2102EP cells, Mod Spec raw data, histone H4 K12 unmodified): 92.7945 % of peptide pool; H4: K16AC, % of peptide pool ([6]; 2102EP cells, Mod Spec raw data, histone H4 K16 acetylated): 49.1827 % of peptide pool; H4: K16UN, % of peptide pool ([6]; 2102EP cells, Mod Spec raw data, histone H4 K16 unmodified): 50.8173 % of peptide pool; H4: K20AC, % of peptide pool ([6]; 2102EP cells, Mod Spec raw data, histone H4 K20 acetylated): 21.1654 % of peptide pool; H4: K20ME2, % of peptide pool ([6]; 2102EP cells, Mod Spec raw data, histone H4 K20 dimethylated): 54.2158 % of peptide pool; H4: K20ME1, % of peptide pool ([6]; 2102EP cells, Mod Spec raw data, histone H4 K20 monomethylated): 4.396 % of peptide pool; H4: K20ME3, % of peptide pool ([6]; 2102EP cells, Mod Spec raw data, histone H4 K20 trimethylated): 2.467 % of peptide pool; H4: K20UN, % of peptide pool ([6]; 2102EP cells, Mod Spec raw data, histone H4 K20 unmodified): 17.7556 % of peptide pool; change of histone modifications of the expected mode of action (Mod Spec) ([6]; 2102EP, EC50, 16 h, vs solvent control): increase in H3K64ac and H2A3K15ac; 5hmC levels increase compared to solvent control [7]: 19%; 5mC levels compared to solvent control ([7]; solvent control set to 100%): 70%; EIF3CL Log2 fold change vs. DMSO ([8]; sorted data log2>±1.5, FDR p<0.05): -2.31; A1BG Log2 fold change vs. DMSO ([8]; unsorted data): -0.0752; A1CF Log2 fold change vs. DMSO ([8]; unsorted data): -1.99; A2M Log2 fold change vs. DMSO ([8]; unsorted data): 0.0948; CREB, STAT3 and STAT5 phosphorylation and total levels of β-Catenin and HSP60 [9]: decreased; ERK1/2 phosphorylation [9]: decreased
